Reference: patent publication US20230085307A1, “PYRIDAZINONE COMPOUND AND HERBICIDE” (NISSAN CHEMICAL CORPORATION, priority 2019, published 2023)

Legend:
southern crabgrass [1] = assay: Test Example 4: herbicidal effect by soil treatment (Table 19, symbol F); assay type: in vivo, southern crabgrass (Digitaria ciliaris); settings: amount of applied herbicide 320 g/ha
Method in brief: (§1)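 Step 1: sow seeds in sterilized diluvial soil, cover ~1.5 cm. Step 2: spray diluted emulsion onto soil surface at predetermined rate. Step 3: greenhouse, 25–30° C, three weeks. Step 4: grade effect on each plant by earlier criteria.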

lambsquarters [2] = assay: Test Example 4: herbicidal effect by soil treatment (Table 19, symbol O); assay type: in vivo, lambsquarters (Chenopodium album); settings: amount of applied herbicide 320 g/ha
Method in brief: as §1

wild oat [3] = assay: Test Example 5: herbicidal effect by foliage application, plastic box (Table 20, symbol I); assay type: in vivo, wild oat (Avena fatua); settings: amount of applied herbicide 320 g/ha; foliage application after 14-day growth; evaluated three weeks after application
Method in brief: (§2)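 Foliar spray test: emulsion formulation diluted in water to a set application rate, sprayed onto 14-day-old plants raised in diluvial soil at 25° C to 30° C under glass. Both herbicidal effect and crop effect rated visually three weeks later.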

persian speedwell [4] = assay: Test Example 4: herbicidal effect by soil treatment (Table 19, symbol R); assay type: in vivo, Persian speedwell (Veronica persica); settings: amount of applied herbicide 320 g/ha
Method in brief: as §1

persian speedwell [5] = assay: Test Example 5: herbicidal effect by foliage application, plastic box (Table 20, symbol R); assay type: in vivo, Persian speedwell (Veronica persica); settings: amount of applied herbicide 320 g/ha; foliage application after 14-day growth; evaluated three weeks after application
Method in brief: as §2

rice flat sedge = assay: Test Example 3: herbicidal effect by foliage application, Wagner pot (Table 18, symbol E); assay type: in vivo, rice flat sedge (Cyperus iria); settings: 320 g/ha
Method in brief: (§3)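 Plants were sown in alluvial soil held under 0.1–0.5 cm standing water and grown 14 days in a greenhouse at 25–30 °C. An emulsifiable formulation, water-diluted to the set dose, was then sprayed onto the foliage, and effects were scored three weeks later using previously defined criteria.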

redroot pigweed [6] = assay: Test Example 5: herbicidal effect by foliage application, plastic box (Table 20, symbol N); assay type: in vivo, redroot pigweed (Amaranthus retroflexus); settings: amount of applied herbicide 320 g/ha; foliage application after 14-day growth; evaluated three weeks after application
Method in brief: as §2

green foxtail [7] = assay: Test Example 5: herbicidal effect by foliage application, plastic box (Table 20, symbol G); assay type: in vivo, green foxtail (Setaria viridis); settings: amount of applied herbicide 320 g/ha; foliage application after 14-day growth; evaluated three weeks after application
Method in brief: as §2

velvetleaf [8] = assay: Test Example 5: herbicidal effect by foliage application, plastic box (Table 20, symbol M); assay type: in vivo, velvetleaf (Abutilon theophrasti); settings: amount of applied herbicide 320 g/ha; foliage application after 14-day growth; evaluated three weeks after application
Method in brief: as §2

barnyard grass [9] = assay: Test Example 5: herbicidal effect by foliage application, plastic box (Table 20, symbol H); assay type: in vivo, barnyard grass (Echinochloa crus-galli); settings: amount of applied herbicide 320 g/ha; foliage application after 14-day growth; evaluated three weeks after application
Method in brief: as §2

blackgrass [10] = assay: Test Example 5: herbicidal effect by foliage application, plastic box (Table 20, symbol J); assay type: in vivo, blackgrass (Alopecurus myosuroides); settings: amount of applied herbicide 320 g/ha; foliage application after 14-day growth; evaluated three weeks after application
Method in brief: as §2

Italian ryegrass [11] = assay: Test Example 4: herbicidal effect by soil treatment (Table 19, symbol K); assay type: in vivo, Italian ryegrass (Lolium multiflorum); settings: amount of applied herbicide 320 g/ha
Method in brief: as §1

velvetleaf [12] = assay: Test Example 4: herbicidal effect by soil treatment (Table 19, symbol M); assay type: in vivo, velvetleaf (Abutilon theophrasti); settings: amount of applied herbicide 320 g/ha
Method in brief: as §1

windgrass [13] = assay: Test Example 5: herbicidal effect by foliage application, plastic box (Table 20, symbol L); assay type: in vivo, windgrass (Apera spica-venti); settings: amount of applied herbicide 320 g/ha; foliage application after 14-day growth; evaluated three weeks after application
Method in brief: as §2

blackgrass [14] = assay: Test Example 4: herbicidal effect by soil treatment (Table 19, symbol J); assay type: in vivo, blackgrass (Alopecurus myosuroides); settings: amount of applied herbicide 320 g/ha
Method in brief: as §1

Italian ryegrass [15] = assay: Test Example 5: herbicidal effect by foliage application, plastic box (Table 20, symbol K); assay type: in vivo, Italian ryegrass (Lolium multiflorum); settings: amount of applied herbicide 320 g/ha; foliage application after 14-day growth; evaluated three weeks after application
Method in brief: as §2

chickweed [16] = assay: Test Example 5: herbicidal effect by foliage application, plastic box (Table 20, symbol P); assay type: in vivo, common chickweed (Stellaria media); settings: amount of applied herbicide 320 g/ha; foliage application after 14-day growth; evaluated three weeks after application
Method in brief: as §2

Chinese sprangletop = assay: Test Example 3: herbicidal effect by foliage application, Wagner pot (Table 18, symbol D); assay type: in vivo, chinese sprangletop (Leptochloa chinensis); settings: 320 g/ha
Method in brief: as §3

green foxtail [17] = assay: Test Example 4: herbicidal effect by soil treatment (Table 19, symbol G); assay type: in vivo, green foxtail (Setaria viridis); settings: amount of applied herbicide 320 g/ha
Method in brief: as §1

redroot pigweed [18] = assay: Test Example 4: herbicidal effect by soil treatment (Table 19, symbol N); assay type: in vivo, redroot pigweed (Amaranthus retroflexus); settings: amount of applied herbicide 320 g/ha
Method in brief: as §1

lambsquarters [19] = assay: Test Example 5: herbicidal effect by foliage application, plastic box (Table 20, symbol O); assay type: in vivo, lambsquarters (Chenopodium album); settings: amount of applied herbicide 320 g/ha; foliage application after 14-day growth; evaluated three weeks after application
Method in brief: as §2

barnyard grass [20] = assay: Test Example 4: herbicidal effect by soil treatment (Table 19, symbol H); assay type: in vivo, barnyard grass (Echinochloa crus-galli); settings: amount of applied herbicide 320 g/ha
Method in brief: as §1

southern crabgrass [21] = assay: Test Example 5: herbicidal effect by foliage application, plastic box (Table 20, symbol F); assay type: in vivo, southern crabgrass (Digitaria ciliaris); settings: amount of applied herbicide 320 g/ha; foliage application after 14-day growth; evaluated three weeks after application
Method in brief: as §2

wild oat [22] = assay: Test Example 4: herbicidal effect by soil treatment (Table 19, symbol I); assay type: in vivo, wild oat (Avena fatua); settings: amount of applied herbicide 320 g/ha
Method in brief: as §1

barnyard grass [23] = assay: Test Example 3: herbicidal effect by foliage application, Wagner pot (Table 18, symbol H); assay type: in vivo, barnyard grass (Echinochloa crus-galli); settings: 320 g/ha
Method in brief: as §3

windgrass [24] = assay: Test Example 4: herbicidal effect by soil treatment (Table 19, symbol L); assay type: in vivo, windgrass (Apera spica-venti); settings: amount of applied herbicide 320 g/ha
Method in brief: as §1

chickweed [25] = assay: Test Example 4: herbicidal effect by soil treatment (Table 19, symbol P); assay type: in vivo, common chickweed (Stellaria media); settings: amount of applied herbicide 320 g/ha
Method in brief: as §1

SMILES | F: southern crabgrass, herbicidal effect grade (southern crabgrass [1]) | O: lambsquarters, herbicidal effect grade (lambsquarters [2]) | Herbicidal effect by foliage application, I: wild oat (wild oat [3]) | R: persian speedwell, herbicidal effect grade (persian speedwell [4]) | Herbicidal effect by foliage application, R: persian speedwell (persian speedwell [5]) | herbicidal effect on rice flat sedge (E) (rice flat sedge) | Herbicidal effect by foliage application, N: redroot pigweed (redroot pigweed [6]) | Herbicidal effect by foliage application, G: green foxtail (green foxtail [7]) | Herbicidal effect by foliage application, M: velvetleaf (velvetleaf [8]) | Herbicidal effect by foliage application, H: barnyard grass (barnyard grass [9]) | Herbicidal effect by foliage application, J: blackgrass (blackgrass [10]) | K: Italian ryegrass, herbicidal effect grade (Italian ryegrass [11]) | M: velvetleaf, herbicidal effect grade (velvetleaf [12]) | Herbicidal effect by foliage application, L: windgrass (windgrass [13]) | J: blackgrass, herbicidal effect grade (blackgrass [14]) | Herbicidal effect by foliage application, K: Italian ryegrass (Italian ryegrass [15]) | Herbicidal effect by foliage application, P: chickweed (chickweed [16]) | herbicidal effect on Chinese sprangletop (D) (Chinese sprangletop) | G: green foxtail, herbicidal effect grade (green foxtail [17]) | N: redroot pigweed, herbicidal effect grade (redroot pigweed [18]) | further results
Cc1nn(C)c(=O)c(-c2c(-c3ccc(C#N)cc3)sc3cc(F)c(F)cc23)c1O [5-025] | 1 (Herbicidal rate of 5% or more and less than 20%) | 5 (Herbicidal rate of 90% or more (almost completely withered)) | 3 (Herbicidal rate of 40% or more and less than 70%) | 4 (Herbicidal rate of 70% or more and less than 90%) | 5 (Herbicidal rate of 90% or more (almost completely withered)) | 4 (Herbicidal rate of 70% or more and less than 90%) | 5 (Herbicidal rate of 90% or more (almost completely withered)) | 4 (Herbicidal rate of 70% or more and less than 90%) | 5 (Herbicidal rate of 90% or more (almost completely withered)) | 1 (Herbicidal rate of 5% or more and less than 20%) | 1 (Herbicidal rate of 5% or more and less than 20%) | 1 (Herbicidal rate of 5% or more and less than 20%) | 3 (Herbicidal rate of 40% or more and less than 70%) | 5 (Herbicidal rate of 90% or more (almost completely withered)) | 0 (Herbicidal rate of 5% or less (almost no effect)) | 1 (Herbicidal rate of 5% or more and less than 20%) | 5 (Herbicidal rate of 90% or more (almost completely withered)) | 4 (Herbicidal rate of 70% or more and less than 90%) | 4 (Herbicidal rate of 70% or more and less than 90%) | 5 (Herbicidal rate of 90% or more (almost completely withered)) | Herbicidal effect by foliage application, O: lambsquarters (lambsquarters [19]): 5 (Herbicidal rate of 90% or more (almost completely withered)); H: barnyard grass, herbicidal effect grade (barnyard grass [20]): 3 (Herbicidal rate of 40% or more and less than 70%); Herbicidal effect by foliage application, F: southern crabgrass (southern crabgrass [21]): 3 (Herbicidal rate of 40% or more and less than 70%); I: wild oat, herbicidal effect grade (wild oat [22]): 1 (Herbicidal rate of 5% or more and less than 20%); herbicidal effect on barnyard grass (H) (barnyard grass [23]): 3 (Herbicidal rate of 40% or more and less than 70%); L: windgrass, herbicidal effect grade (windgrass [24]): 0 (Herbicidal rate of 5% or less (almost no effect)); P: chickweed, herbicidal effect grade (chickweed [25]): 3 (Herbicidal rate of 40% or more and less than 70%)
Cc1nn(C)c(=O)c(-c2c(-c3ccc4c(c3)OCO4)sc3cc(F)c(F)cc23)c1O [5-035] | 1 (Herbicidal rate of 5% or more and less than 20%) | 3 (Herbicidal rate of 40% or more and less than 70%) | 0 (Herbicidal rate of 5% or less (almost no effect)) | 5 (Herbicidal rate of 90% or more (almost completely withered)) | 5 (Herbicidal rate of 90% or more (almost completely withered)) | 3 (Herbicidal rate of 40% or more and less than 70%) | 5 (Herbicidal rate of 90% or more (almost completely withered)) | 0 (Herbicidal rate of 5% or less (almost no effect)) | 5 (Herbicidal rate of 90% or more (almost completely withered)) | 2 (Herbicidal rate of 20% or more and less than 40%) | 0 (Herbicidal rate of 5% or less (almost no effect)) | 0 (Herbicidal rate of 5% or less (almost no effect)) | 0 (Herbicidal rate of 5% or less (almost no effect)) | 5 (Herbicidal rate of 90% or more (almost completely withered)) | 0 (Herbicidal rate of 5% or less (almost no effect)) | 0 (Herbicidal rate of 5% or less (almost no effect)) | 5 (Herbicidal rate of 90% or more (almost completely withered)) | 3 (Herbicidal rate of 40% or more and less than 70%) | 2 (Herbicidal rate of 20% or more and less than 40%) | 1 (Herbicidal rate of 5% or more and less than 20%) | Herbicidal effect by foliage application, O: lambsquarters (lambsquarters [19]): 5 (Herbicidal rate of 90% or more (almost completely withered)); H: barnyard grass, herbicidal effect grade (barnyard grass [20]): 3 (Herbicidal rate of 40% or more and less than 70%); Herbicidal effect by foliage application, F: southern crabgrass (southern crabgrass [21]): 1 (Herbicidal rate of 5% or more and less than 20%); I: wild oat, herbicidal effect grade (wild oat [22]): 0 (Herbicidal rate of 5% or less (almost no effect)); herbicidal effect on barnyard grass (H) (barnyard grass [23]): 4 (Herbicidal rate of 70% or more and less than 90%); L: windgrass, herbicidal effect grade (windgrass [24]): 0 (Herbicidal rate of 5% or less (almost no effect)); P: chickweed, herbicidal effect grade (chickweed [25]): 1 (Herbicidal rate of 5% or more and less than 20%)
